≈ marks a conversion by molar mass, not a printed value. Structures can show the parent of a compound that is named as a salt. Where two headings read alike, the source gives them in different places.
Legend:
[1] = format: physicochemical
Experimental: After addition of the base solution, a white suspension formed, and some material coagulated on the walls of the solution container.
The resulting solution was concentrated to a final volume of about 2 ml on a rotary evaporator and then diluted to 40 ml with water. Two-milliliter aliquots of this solution were added to each of several 6-ml vials.
The solution was concentrated in vacuo to remove methanol and diluted to 10 ml for lyophilization. The lyophilized solid is white and powdery.

[2] = tested on: Alcaligenes viscolactis; assay: Antimicrobial activity of CL-1957A, paper disc growth inhibition zone; format: cell-based; conditions: ATCC21698, 16 h, ATCC 21698, Mycin medium, 500 μg/ml, read-out: Diameter of Inhibition Zone
Experimental: (§1) The disc and inoculated medium were incubated for 16 hours at 37° C. and the diameter of the resulting growth inhibition zone, if any, was measured.

[3] = tested on: Micrococcus luteus; assay: as above; format: cell-based; conditions: 16 h, PD 05064, PAS medium, read-out: Diameter of Inhibition Zone
Experimental: as §1

[4] = tested on: Proteus vulgaris; assay: as above; format: cell-based; conditions: 16 h, PD 05062, PAS medium, read-out: Diameter of Inhibition Zone
Experimental: as §1

[5] = tested on: Branhamella catarrahalis; assay: as above; format: cell-based; conditions: 16 h; PD 03596, CAP medium, 500 μg/ml; read-out: Diameter of Inhibition Zone
Experimental: as §1

[6] = tested on: Bacillus subtilis; assay: as above; format: cell-based
Experimental: as §1

[7] = tested on: Xanthomonas phaseoli; assay: as above; format: cell-based; conditions: 16 h, PD 06002, CMA medium, read-out: Diameter of Inhibition Zone
Experimental: as §1

[8] = tested on: Staphylococcus aureus; assay: as above; format: cell-based; conditions: 16 h, read-out: Diameter of Inhibition Zone; for zone of inhibition at 10 µg/mL: 10 μg/ml; for zone of inhibition at 500 µg/mL: 500 μg/ml; for zone of inhibition at 100 µg/mL: 100 μg/ml
Experimental: as §1

[9] = tested on: B16 Melanoma; assay: In vivo activity of CL-1957A against B16 Melanoma in mice; conditions: ratio of median life span
Description: The activity of the compound against B16 melanoma is presented in Table XIV in terms of % T/C values which represents the ratio of median life span in days of treated mice to untreated mice, expressed as a percentage.

[10] = tested on: human colon adenocarcinoma cells; assay: Cytotoxicity of CL-1957A in vitro; format: cell-based; conditions: read-out: ID50 (the source's name)
Description: (§2) The ID50 values appear in Table XII.

[11] = tested on: L1210 mouse leukemia cells; assay: Cytotoxicity of CL-1957A in vitro; format: cell-based; conditions: read-out: ID50 (the source's name)
Description: as §2

[12] = tested on: P388 leukemia; assay: In vivo activity of CL-1957A against P388 leukemia in mice
[13] = tested on: Ridgeway Osteogenic Sarcoma; assay: In vivo activity of CL-1957A against Ridgeway Osteogenic Sarcoma in mice
Experimental: Male AKR mice were pooled, inoculated subcutaneously by trocar with 30-60 mg fragments of Ridgeway Osteogenic Sarcoma, repooled, and randomly distributed to treatment groups on Day 0.
Appropriate mice received intrapertioneal injections of the test compound dissolved in 0.9% sodium chloride solution on Days 2, 6, and 10, and then weekly thereafter. Tumors were measured on Days 24 and 35. The results are presented in Table XIII as % T/C (as defined below). % T/C values of less than 40 on Day 35 are considered active. [formula]

[14] = physchem; format: physicochemical
[15] = format: physicochemical; conditions: for Percent Remaining After One Week: 168 h
Experimental: The thin-film preparations which resulted were assayed for stability by comparing the purity of the film against a standard sample by HPLC techniques.

**Q.** With `CCC(C=CC1OC(=O)C=CC1C)=CC(C)CC=CC(C)=CC(C)C(=O)C(C)C(O)C(C)CC(C)=CC(=O)O` (stereo not drawn) [CL-1957A triethylammonium salt] as the molecule, how does the solubility in water [1] read?
**A.** Its solubility in water is “soluble in water”.

**Q.** Which zone of inhibition at 500 µg/mL [2] does the source give for `CCC(C=CC1OC(=O)C=CC1C)=CC(C)CC=CC(C)=CC(C)C(=O)C(C)C(O)C(C)CC(C)=CC(=O)O` (stereo not drawn) [CL-1957A, 19-(3,6-dihydro-3-methyl-6-oxo-2H-pyran-2-yl)-17-ethyl-6-hydroxy-3,5,7,9, 11,15-hexamethyl-8-oxo 2,10,12 16,18-nonadecapentaenoic acid] here?
**A.** Its zone of inhibition at 500 µg/mL is 19 mm.

**Q.** And the zone of inhibition at 10 µg/mL ([3]; 10 μg/ml)?
**A.** Its zone of inhibition at 10 µg/mL is 0 mm.

**Q.** And the zone of inhibition at 100 µg/mL ([3]; 100 μg/ml)?
**A.** Its zone of inhibition at 100 µg/mL is 0 mm.

**Q.** And the zone of inhibition at 10 µg/mL ([4]; 10 μg/ml)?
**A.** The zone of inhibition at 10 µg/mL was 0 mm.

**Q.** What about the zone of inhibition at 100 µg/mL ([4]; 100 μg/ml) of the same molecule?
**A.** The zone of inhibition at 100 µg/mL was 0 mm.

**Q.** What about the zone of inhibition at 500 µg/mL ([4]; 500 μg/ml) of the same molecule?
**A.** The zone of inhibition at 500 µg/mL was 0 mm.

**Q.** And the zone of inhibition at 500 µg/mL [5]?
**A.** Its zone of inhibition at 500 µg/mL is 30 mm.

**Q.** What about the zone of inhibition at 10 µg/mL ([6]; 16 h, PD 04969, #169 medium, 10 μg/ml, read-out: Diameter of Inhibition Zone) of the same molecule?
**A.** Its zone of inhibition at 10 µg/mL is 0 mm.

**Q.** What about the zone of inhibition at 100 µg/mL ([6]; ATCC6633, 16 h, read-out: Diameter of Inhibition Zone, ATCC 6633, #169 medium, 100 μg/ml) of the same molecule?
**A.** The zone of inhibition at 100 µg/mL was 16 mm.

**Q.** And the zone of inhibition at 10 µg/mL ([6]; ATCC6633, 16 h, read-out: Diameter of Inhibition Zone, ATCC 6633, Mycin medium, 10 μg/ml)?
**A.** The zone of inhibition at 10 µg/mL was 0 mm.

**Q.** What about the zone of inhibition at 100 µg/mL ([6]; ATCC6633, 16 h, read-out: Diameter of Inhibition Zone, ATCC 6633, Mycin medium, 100 μg/ml) of the same molecule?
**A.** The zone of inhibition at 100 µg/mL was 0 mm.

**Q.** What about the zone of inhibition at 10 µg/mL ([7]; 10 μg/ml) of the same molecule?
**A.** Its zone of inhibition at 10 µg/mL is 0 mm.

**Q.** What about the zone of inhibition at 100 µg/mL ([7]; 100 μg/ml) of the same molecule?
**A.** The zone of inhibition at 100 µg/mL was 0 mm.

**Q.** What about the zone of inhibition at 500 µg/mL ([7]; 500 μg/ml) of the same molecule?
**A.** Its zone of inhibition at 500 µg/mL is 0 mm.

**Q.** What about the zone of inhibition at 10 µg/mL ([8]; PD 02482, PAS medium) of the same molecule?
**A.** Its zone of inhibition at 10 µg/mL is 0 mm.

**Q.** What about the zone of inhibition at 500 µg/mL ([8]; PD 02482, PAS medium) of the same molecule?
**A.** Its zone of inhibition at 500 µg/mL is 16 mm.

**Q.** And the zone of inhibition at 10 µg/mL ([8]; PD 5045, AM-9 medium)?
**A.** Its zone of inhibition at 10 µg/mL is 0 mm.

**Q.** And the zone of inhibition at 100 µg/mL ([8]; PD 5045, AM-9 medium)?
**A.** Its zone of inhibition at 100 µg/mL is 17 mm.

**Q.** What about the zone of inhibition at 500 µg/mL ([8]; PD 5045, AM-9 medium) of the same molecule?
**A.** Its zone of inhibition at 500 µg/mL is 22 mm.

**Q.** What about the zone of inhibition at 10 µg/mL ([8]; PD 5045, AM-10 medium) of the same molecule?
**A.** The zone of inhibition at 10 µg/mL was 0 mm.

**Q.** And the zone of inhibition at 100 µg/mL ([8]; PD 5045, AM-10 medium)?
**A.** The zone of inhibition at 100 µg/mL was 19 mm.

**Q.** And the zone of inhibition at 500 µg/mL ([8]; PD 5045, AM-10 medium)?
**A.** The zone of inhibition at 500 µg/mL was 22 mm.

**Q.** And the “% T/C” value ([9]; 0.075 mg/kg/injection i.p. Days 1, 5, 9)?
**A.** Its value is 201%.

**Q.** And the “% T/C” value ([9]; 0.60 mg/kg/injection i.p. Days 1, 5, 9)?
**A.** Its value is “Toxic”.

**Q.** And the IC50 [10]?
**A.** Its IC50 is 0.02 ng/mL (≈ 0.037 nM).

**Q.** And the IC50 [11]?
**A.** The IC50 was 0.118 ng/mL (≈ 0.218 nM).

**Q.** What about the “% T/C” value ([12]; 12.5 μg/kg/injection, Days 1-5, Test 1) of the same molecule?
**A.** The value was 118%.

**Q.** And the “% T/C” value ([12]; 25 μg/kg/injection, Days 1-5, Test 1)?
**A.** Its value is 127%.

**Q.** What about the “% T/C” value ([12]; 100 μg/kg/injection, Days 1-5, Test 1) of the same molecule?
**A.** Its value is “Toxic”.

**Q.** What about the “% T/C” value ([12]; 100 μg/kg/injection, Days 1-5, Test 2) of the same molecule?
**A.** The value was “Toxic”.

**Q.** What about the “% T/C” value ([13]; 0.125 mg/kg/injection i.p. Days 2, 6, 10, then weekly, Day 24) of the same molecule?
**A.** The value was 14%.

**Q.** And the “% T/C” value ([13]; 0.125 mg/kg/injection i.p. Days 2, 6, 10, then weekly, Day 35, less than 40 considered active)?
**A.** Its value is 22%.

**Q.** And the “% T/C” value ([13]; 0.25 mg/kg/injection i.p. Days 2, 6, 10, then weekly, Day 24)?
**A.** The value was 15%.

**Q.** What about the “% T/C” value ([13]; 0.25 mg/kg/injection i.p. Days 2, 6, 10, then weekly, Day 35, less than 40 considered active) of the same molecule?
**A.** The value was 9%.

**Q.** What about the “% T/C” value ([13]; 0.50 mg/kg/injection i.p. Days 2, 6, 10, then weekly, Day 24) of the same molecule?
**A.** The value was 0%.

**Q.** And the “% T/C” value ([13]; 0.50 mg/kg/injection i.p. Days 2, 6, 10, then weekly, Day 35, less than 40 considered active)?
**A.** The value was 0%.

**Q.** And the remaining at 730 h ([14]; 95% ethanol)?
**A.** Its remaining at 730 h is 100%.

**Q.** And the remaining at 3650 h ([14]; 95% ethanol)?
**A.** The remaining at 3650 h was 100%.

**Q.** And the remaining at 3650 h ([14]; abs. ethanol)?
**A.** The remaining at 3650 h was 100%.

**Q.** What about the remaining at 730 h ([14]; absolute ethanol) of the same molecule?
**A.** Its remaining at 730 h is 100%.

**Q.** And the remaining at 730 h ([14]; dimethylacetamide)?
**A.** The remaining at 730 h was 95%.

**Q.** And the remaining at 730 h ([14]; dimethylsulfoxide)?
**A.** The remaining at 730 h was 93%.

**Q.** What about the remaining at 730 h ([14]; propylene glycol) of the same molecule?
**A.** Its remaining at 730 h is 100%.

**Q.** What about the remaining at 3650 h ([14]; propylene glycol) of the same molecule?
**A.** Its remaining at 3650 h is 100%.

**Q.** What about the “stability of ascorbate-containing thin-film preparation” value [15] of the same molecule?
**A.** The value was “began to show some decomposition”.

**Q.** And the “stability of solid preparations of the pure compound” value [15]?
**A.** The value was “insufficiently stable for pharmaceutical use”.

**Q.** What about the “stability of thin-film preparations” value [15] of the same molecule?
**A.** Its value is “not stable for periods of even one week”.

**Q.** What about the “Percent Remaining After One Week” value ([15]; solid cake from 1,1-dimethylethanol) of the same molecule?
**A.** Its value is 56%.

**Q.** And the “Percent Remaining After One Week” value ([15]; thin film from 95% ethanol)?
**A.** Its value is 40%.

**Q.** And the “Percent Remaining After One Week” value ([15]; thin film from abs. ethanol)?
**A.** The value was 60%.

**Q.** For `CCC(C=CC1OC(=O)C=CC1C)=CC(C)CC=CC(C)=CC(C)C(=O)C(C)C(O)C(C)CC(C)=CC(=O)O` [N-methyl-D-glucamine salt], which solubility in water [1] is on record?
**A.** Its solubility in water is “soluble in water”.

**Q.** For `CCC(C=CC1OC(=O)C=CC1C)=CC(C)CC=CC(C)=CC(C)C(=O)C(C)C(O)C(C)CC(C)=CC(=O)O` (stereo not drawn) [calcium salt of CL-1957A], which solubility in ethanol [1] is on record?
**A.** Its solubility in ethanol is “soluble in ethanol”.

**Q.** And the solubility in water [1]?
**A.** Its solubility in water is “insoluble in water”.
